Data reported in patent EP0369874A2, “Cardioprotective tocopherol analogs” (MERRELL DOW PHARMACEUTICALS INC., priority 1988, dated 1990).
Where “and” joins values, the source holds several entries; their conditions need not be identical. Equal entries are not always repeated.

Key:
[1] = Free-radical scavenging: inhibition of autoxidation of 1-epinephrine (Misra and Fridovich); format: biochemical; settings: 1-epinephrine 1 x 10⁻⁴M, EDTA 1 x 10⁻⁴M, 30°C, absorbance at 480; read-out: 50% inhibition of the autoxidation rate (ID₅₀)
Procedure: 2-(3,4-dihydro-6-hydroxy-2,5,7,8-tetramethyl-2H-1-benzopyran-2-yl)ethyl-N,N,N-trimethylammonium bromide, described in Example 1, was evaluated for its ability to reduce superoxide radicals in an assay described by H.P. Misra and J. Fridovich, 1972, J. Biol. Chem. 247, 3170-5. In this assay, the rate of autoxidation of 1-epinephrine (1 x 10⁻⁴M) in the presence of EDTA (1 x 10⁻⁴M) at 30°C is followed spectrophotometrically following the increase of absorbance at 480 mn. […] For comparison, 3,4-dihydro-6-hydroxy-2,5,7,8-tetramethyl-2H-1-benzopyran-2-carboxylic acid (CAS 53188-07-1) gave ID₅₀= 105 ± 8 µM and d,1-penicillamine (CAS 52-67-5)ID₅₀ = 73 µM in parallel experiments. Misra and Fridovich report that bovine superoxide dismutase gave 50% inhibition at […].

[2] = test system: ligation-induced infarcted and reperfused rats; assay: Cardioprotective effects: coronary ligation 60 min, reperfusion 30 min, infarcted area / area at risk; format: in vivo
Procedure: 2-(3,4-Dihydro-2,5,7,8-tetramethyl-6-methylcarbonyloxy-2H-1-benzopyran-2-yl)ethyl-N,N,N-trimethylammonium bromide was evaluated in ligation-induced infarcted and reperfused rats as follows. One of two groups of rats was infused intravenously with a solution of test compound in saline at a rate of 2.3 ml/h (10 mg/kg/h). The control group was infused with saline at the same rate. After 10 min of drug infusion, coronary arteries were ligated surgically for 60 min, ligation was loosened to allow reperfusion for 30 min. The ligation was […] dye (Evans Blue) was injected. The animals were sacrificed and the heart ventricles were removed and weighed. The unstained tissue was dissected and weighed; this represents the "area at risk". i.e. the area that was deprived of blood supply by ligation. To determine the infarcted area, the tissue was incubated with 2,3,5-triphenyltetrazolium chloride. Infarcted tissue became light colored and could be dissected and weighed. Thus, for each rat that survived the ligation a measurement of "area at risk" and of "infarcted area" was obtained and the ratio was calculated as given in Tables II and III. TABLE II 3,4-Dihydro-2-(2-dimethylaminoethyl)-2,5,7,8-tetramethyl-2H-1-benzopyran-6-yl acetate hydrochloride was evaluated in ligation-induced infarcted and reperfused rats as follows. One of two groups of rats was infused intravenously with a solution of test compound in saline at a rate of 2.3 ml/h (10 mg/kg/h). The control group was infused with saline at the same rate. After 10 min of drug, coronary arteries were ligated surgically for 60 min, ligation was loosened to allow reperfusion for 30 min. The ligation was […] dye (Evans Blue) was injected. The animals were […] heart […] removed and weighed. The unstained tissue was dissected and weighed; this represents the "area at risk", i.e. the area that was deprived of blood supply by ligation. To determine the infarcted area, the tissue was incubated with 2,3,5-triphenyltetrazolium chloride. Infarcted tissue became light colored and was dissected and weighed. Thus, for each rat that survived the ligation a measurement of "area at risk" and of "infarcted area" was obtained and the ratio was calculated as shown in the following tables.

[3] = Affinity for cardiac tissue: radioactivity in heart and blood after intravenous 14C-labelled compound; format: in vivo; settings: rats, 0.91 mg base/kg intravenous
Procedure: Following the procedure described in Example11, but using ¹⁴C-methyl p-toluenesulfonate in place of "cold material", ¹⁴C-labelled 2-(3,4-dihydro-2,5,7,8-tetramethyl-6-methylcarbonyloxy-2H-1benzopyranan-2-yl)ethyl-N,N,N-tri-¹⁴C-methylammonium p-toluenesulfonate was synthesized. The preparation was diluted with "cold material" to 11.74 µCi/mg base.
24 rats were given 0.91 mg base/kg by inravenous route (by canula into the jugular vein). The animals were sacrificed in groups of 3 at the time periods indicated in Table I. Immediately before sacrifice a 0.5 ml blood sample was taken from an indwelling catheter in the carotid artery. The hearts were removed, blotted and weighed. The samples of tissue and blood were solubilized with Luma Solve (a quarternary ammonium hydroxide preparation) and radioactivity was determined in a scintillation counter.

[4] = treated group, intravenous infusion 10 mg/kg/h, individual rats, listed as 3,4-Dihydro-2-(2-dimethylaminoethyl)-2,5,7,8-tetramethyl-2H-1-benzopyran-6-yl ac, acetate hydrochloride

Molecule: Cc1c(C)c2c(c(C)c1O)CCC(C)(C(=O)O)O2 (stereo not shown) [3,4-dihydro-6-hydroxy-2,5,7,8-tetramethyl-2H-1-benzopyran-2-carboxylic acid]
- IC50 [1]: 105 ± 8 µM

Molecule: CC(=O)Oc1c(C)c(C)c2c(c1C)CCC(C)(CCN(C)C)O2.Cl (stereo not shown) [Example 4, 3,4-Dihydro-2-(2-dimethylaminoethyl)-2,5,7,8-tetramethyl-2H-benzopyran-6-yl acetate hydrochloride]
- reduction of infarction ([2]; treated group (10 mg/kg/h) versus saline control group): 48.2%
- Ratio % (infarcted tissue / tissue at risk), average ([2]; treated group, intravenous infusion 10 mg/kg/h, group average): 38.0%
- Infarcted tissue [2, 4]: 337 mg and 80 mg and 51 mg (2×) and 346 mg and 18 mg and 294 mg and 34 mg
- Ratio % (infarcted tissue / tissue at risk) [2, 4]: 70.1% and 40.3% and 10% and 83.2% and 4% and 71.6% and 17.5% and 7.0%

Molecule: Cc1c(C)c2c(c(C)c1O)CCC(C)(CC[N+](C)(C)C)O2 (stereo not shown) [Example 10, 2-(3,4-Dihydro-6-hydroxy-2,5,7,8-tetramethyl-2H-1-benzo-pyran-2-yl)ethyl-N,N,N-trimethylammonium bromide]
- IC50 [1]: 138 ± 14 µM

Molecule: CC(=O)Oc1c(C)c(C)c2c(c1C)CCC(C)(CC[N+](C)(C)C)O2.[Br-] (stereo not shown) [Example 11, 2-(3,4-Dihydro-2,5,7,8-tetramethyl-6-methylcarbonyloxy-2H-1-benzopyran-2-yl)ethyl-N,N,N-trimethylammonium bromide]
- Infarcted tissue ([2]; treated group, intravenous infusion 10 mg/kg/h, individual rats): 23 mg and 27 mg and 39 mg and 33 mg

Molecule: CC(=O)Oc1c(C)c(C)c2c(c1C)CCC(C)(CC[N+](C)(C)C)O2.Cc1ccc(S(=O)(=O)[O-])cc1 (stereo not shown) [Example 18, 2-(3,4-Dihydro-2,5,7,8-tetramethyl-6-methylcarbonyloxy-2H-1-benzopyran-2-yl)ethyl-N,N,N-trimethylammonium p-toluenesulfonate]
- Ratio heart/blood ([3]; 5 min after administration): 3.05±1.46
- ng equiv/ml blood ([3]; 5 min after administration): 0.434±0.351 ng equiv/ml
- Ratio heart/blood ([3]; 15 min after administration): 6.90±8.34
- ng equiv/ml blood ([3]; 15 min after administration): 0.590±0.295 ng equiv/ml
- Ratio heart/blood ([3]; 30 min after administration): 17.33±5.42
- ng equiv/ml blood ([3]; 30 min after administration): 0.124±0.032 ng equiv/ml
- Ratio heart/blood ([3]; 1 hour after administration): 20.09±2.54
- ng equiv/ml blood ([3]; 1 hour after administration): 0.096±0.008 ng equiv/ml
- Ratio heart/blood ([3]; 2 hours after administration): 21.90±3.56
- ng equiv/ml blood ([3]; 2 hours after administration): 0.086±0.041 ng equiv/ml
- ng equiv/ml blood ([3]; 4 hours after administration): 0.054±0.013 ng equiv/ml
- Ratio heart/blood ([3]; 4 hours after administration, listed as 2-(3,4-dihydro-2,5,7,8-tetramethyl-6-methylcarbonyloxy-2H-1benzopyranan-2-yl)eth, p-toluenesulfonate): 27.15 and 27.15±4.30
- Ratio heart/blood ([3]; 6 hours after administration): 18.62±2.77
- ng equiv/ml blood ([3]; 6 hours after administration): 0.048±0.007 ng equiv/ml
- Ratio heart/blood ([3]; 8 hours after administration): 15.12±2.69
- ng equiv/ml blood ([3]; 8 hours after administration): 0.048±0.012 ng equiv/ml
- concentration of drug in heart tissue ([3]; after 8 h): 0.65 µg equiv/g

Molecule: d,1-penicillamine
- IC50 [1]: 73 µM
